Measurements from patent publication US7595330B2, “Benzimidazole thiophene compounds” (SmithKline Beecham Corporation, priority 2005, dated 2009).

Experiments:
A549-L = test: Cell-Titer-Glo inhibition of cell proliferation, A549-L; format: cell-based; conditions: CellTiter-Glo, 72 h
Protocol: (§1) V. Cell-Titer-Glo—Inhibition of Cell Proliferation by PLK1 Inhibitors
(§2) Exponentially growing cell lines of different tumor origins, cultured in appropriate media containing 10% fetal bovine serum at 37° C. in a 5% CO2 incubator were plated at low density (less than 2000 cells/well) in 96-well plates. Twenty four hours post-plating, cells were treated with different concentrations of test compounds ranging from 10 uM to 0.04 nM. Several wells were left untreated as a control. Seventy two hours post-treatment, cell numbers were determined using 50-100 ul per well of CellTiter-Glo (Promega #G7573). Plates were incubated at room temperature for 15 minutes and the chemiluminescent signal was read on the Victor V or Envison 2100 reader.
(§3) The Cell-Titer Glo data are shown in Table 2 below and represent a compilation of several different experiments, each performed using the general parameters outlined above, although minor variations may have been employed in some instances.

[1] = tested on: normal human foreskin fibroblasts (HFF); test: Methylene blue growth inhibition assay, HFF; format: cell-based; conditions: Fibroblast, methylene blue, 72 h, HFF normal fibroblasts, read-out: HFF IC50
Protocol: (§4) II. Methylene Blue Growth Inhibition Assay—Inhibition of Cell Proliferation by PLK1 Inhibitors
(§5) Generally, exponentially growing cell lines of different tumor origins, cultured in appropriate media containing 10% fetal bovine serum at 37° C. in a 5% CO2 incubator were plated at low density (less than 2000 cells/well) in 96-well plates. […]. Seventy two hours post-treatment, cell numbers were determined using 100 μl per well of methylene blue (Sigma M9140) (0.5% in 50:50 Ethanol:water). Stain was incubated at room temperature for 30 minutes before plates were rinsed and dye solubilized in 1% N-lauroyl sarcosine, sodium salt, (Sigma L5125, in PBS) (further details of a methylene blue assay are described below). Plates were read on a microplate reader, measuring the OD at 620 nm.
(§6) . The data are shown in Table 1 below and represent a compilation of several different experiments, each performed using the general parameters outlined above, although minor variations may have been employed in some instances.
(§7) In one assay, normal human foreskin fibroblasts (HFF), human colon (HCT116, RKO), lung (H460, A549) and breast (MCF7) tumor cell lines were cultured in high glucose DMEM (Life Technologies) containing 10% fetal bovine serum (FBS) at 37° C. in a humidified 5% CO2, 95% air incubator. Cells were harvested using trypsin/EDTA, counted using a haemocytometer, and plated in 100 μL of culture media per well, at the following densities, in a 96-well tissue culture plate (Falcon 3075): HFF 5,000 cells/well, HCT116 3,000 cells/well, RKO 2,500 cells/well, H460 2,500 cells/well, A549 5,000 cells/well, MCF7 4,000 cells/well. The next day, compounds were diluted in low glucose DMEM containing 100 μg/mL gentamicin, at twice the final required concentration, from 10 mM stock solutions in DMSO. 100 μL/well of these dilutions were added to the 100 μL of media currently in the assay plates. Medium containing 0.6% DMSO was added to control wells. The final concentration of DMSO in all wells was 0.3%. Cells were incubated at 37° C., 5% CO2 for 72 h. Medium was removed by aspiration. Cell biomass was estimated by staining cells with 80 μL per well methylene blue (Sigma M9140, 0.5% in 50:50 ethanol:water), and incubation at room temperature for 30-60 min. Stain was removed by aspiration and the plates rinsed by immersion in water, then air-dried. To release stain from the cells, 100 μL of solubilization solution was added (1% N-lauroyl sarcosine, Sodium salt, Sigma L5125, in PBS), and plates were shaken gently for about 30 min. Optical density at 620 nm was measured on a microplate reader. Percent inhibition of cell growth was calculated relative to vehicle treated control wells. […].

MX-1 = test: Cell-Titer-Glo inhibition of cell proliferation, MX-1; format: cell-based; conditions: Homo sapiens, MX1, CellTiter-Glo, 72 h
Protocol: as §1, §2, §3

HN5 = test: Cell-Titer-Glo inhibition of cell proliferation, HN5; format: cell-based; conditions: Homo sapiens, CellTiter-Glo, 72 h
Protocol: as §1, §2, §3

P388 = test: Cell-Titer-Glo inhibition of cell proliferation, P388; format: cell-based; conditions: Mus musculus, CellTiter-Glo, 72 h
Protocol: as §1, §2, §3

COLO205 = test: Cell-Titer-Glo inhibition of cell proliferation, COLO205; format: cell-based; conditions: Homo sapiens, COLO 205, CellTiter-Glo, 72 h
Protocol: as §1, §2, §3

A549 = test: Methylene blue growth inhibition assay, A549; format: cell-based; conditions: Homo sapiens; methylene blue, 72 h, A549; read-out: A549 IC50
Protocol: as §4, §5, §6, §7

RKO = test: Methylene blue growth inhibition assay, RKO; format: cell-based; conditions: Homo sapiens, methylene blue, 72 h, read-out: RKO IC50
Protocol: as §4, §5, §6, §7

MV522 = test: Cell-Titer-Glo inhibition of cell proliferation, MV522; format: cell-based; conditions: CellTiter-Glo, 72 h
Protocol: as §1, §2, §3

MCF7 [2] = test: Methylene blue growth inhibition assay, MCF7; format: cell-based; conditions: Homo sapiens; methylene blue, 72 h, MCF7; read-out: MCF7 IC50
Protocol: as §4, §5, §6, §7

MCF7 [3] = test: Cell-Titer-Glo inhibition of cell proliferation, MCF7; format: cell-based; conditions: Homo sapiens, CellTiter-Glo, 72 h
Protocol: as §1, §2, §3

HT29 = test: Cell-Titer-Glo inhibition of cell proliferation, HT29; format: cell-based; conditions: Homo sapiens, HT-29, CellTiter-Glo, 72 h
Protocol: as §1, §2, §3

HCT116 [4] = test: Cell-Titer-Glo inhibition of cell proliferation, HCT116; format: cell-based; conditions: Homo sapiens, HCT-116, CellTiter-Glo, 72 h
Protocol: as §1, §2, §3

LNCaP = test: Cell-Titer-Glo inhibition of cell proliferation, LNCaP; format: cell-based; conditions: Homo sapiens, CellTiter-Glo, 72 h
Protocol: as §1, §2, §3

HCT116 [5] = test: Methylene blue growth inhibition assay, HCT116; format: cell-based; conditions: Homo sapiens, HCT-116; methylene blue, 72 h, HCT116; read-out: HCT116 IC50
Protocol: as §4, §5, §6, §7

H1299 = test: Cell-Titer-Glo inhibition of cell proliferation, H1299; format: cell-based; conditions: Homo sapiens, NCI-H1299, CellTiter-Glo, 72 h
Protocol: as §1, §2, §3

H460 = test: Methylene blue growth inhibition assay, H460; format: cell-based; conditions: Homo sapiens, NCI-H460; methylene blue, 72 h, H460; read-out: H460 IC50
Protocol: as §4, §5, §6, §7

[6] = High throughput solubility assay; format: physicochemical; conditions: aqueous buffer, pH 7.4, 0.05M phosphate buffer
Protocol: IV. High Throughput Solubility Assay
Two samples are prepared for each compound. One (the standard sample) contains the compound at a fixed concentration of 20 μM in an aqueous/organic mixed solvent cocktail. The other (the test sample) contains the compound at a maximum concentration of 200 μM in pH 7.4, 0.05M phosphate buffer and shaking for 24 h. The test sample is filtered by 0.45μ filter and then spun for 10 min to remove any undissolved solid. HPLC analyses are preformed on these samples. The peak areas are used for computing solubility.

Hela = test: Cell-Titer-Glo inhibition of cell proliferation, Hela; format: cell-based; conditions: Homo sapiens, CellTiter-Glo, 72 h
Protocol: as §1, §2, §3

- IC50 (A549-L): < 500 nM
- IC50 (P388): < 500 nM
- IC50 (COLO205): < 500 nM
- IC50 (A549): < 100 nM
- IC50 (MCF7 [2]): < 100 nM
- IC50 (MCF7 [3]): < 500 nM
- IC50 (HT29): < 500 nM
- IC50 (HCT116 [4]): < 500 nM
- IC50 (LNCaP): < 500 nM
- IC50 (HCT116 [5]): < 100 nM
- IC50 (H1299): < 500 nM
- IC50 (H460): < 100 nM
- solubility at 24 h [6]: > 100 µM
- IC50 (Hela): < 500 nM
Structure (SMILES): C[C@@H](Oc1cc(-n2cnc3ccc(CN4CCN(C)CC4)cc32)sc1C(N)=O)c1ccccc1C(F)(F)F [Example 3, 5-{6-[(4-Methylpipiperazin-1-yl)methyl]-1H-benzimidazol-1-yl}-3-{(1R)-1-[2-(trifluoromethyl)phenyl]ethoxy}thiophene-2-carboxamide]
- IC50 [1]: < 100 nM
- IC50 (MX-1): < 500 nM
- IC50 (HN5): < 500 nM
- IC50 (RKO): < 100 nM
- IC50 (MV522): < 500 nM
